The numbers were not newly measured in US20200229407A1 (priority 2017, published 2020), which cites them from elsewhere.

Series [1] has as its system prion replication in neuroblastoma cells.
The subject of another series is scrapie agent. Particulars: mouse, in vivo.

Regarding `COc1ccc(CCN2CCC(Nc3nc4ccccc4n3Cc3ccc(F)cc3)CC2)cc1` [astemizole], the “cell-surface PrP” value in the series with cell-surface PrP is listed as “reducing cell-surface PrP”. The prion replication result in series [1] is “inhibiting prion replication”.

Take `C=CC[C@@H]1/C=C(\C)C[C@H](C)C[C@H](OC)[C@H]2O[C@@](O)(C(=O)C(=O)N3CCCC[C@H]3C(=O)O[C@H](/C(C)=C/[C@@H]3CC[C@@H](O)[C@H](OC)C3)[C@H](C)[C@@H](O)CC1=O)[C@H](C)C[C@@H]2OC` [tacrolimus]: the “cell-surface PrP” value in the series with cell-surface PrP is on record as “reducing cell-surface PrP”. In series [1], the prion replication result is “inhibiting prion replication”.

Regarding pentosan polysulphate [PPS], the incubation period entry with scrapie agent is recorded as “prolonged the incubation period”.
